Experiments:
Test in all cases: relative viability (nuclei count vs DMSO), 5 days (fraction); higher = more cells survive
[1] = compound: CC1=CN=C(N=C1C2=CNC(=C2)C(=O)N[C@H](CO)C3=CC(=CC=C3)Cl)NC4=C(C=C(C=C4)F)Cl [VX-11e]
Outline: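 On vehicle-anchored 1536-well plates, lung cancer cell lines held overnight at 37 °C were pinned with five library-drug doses (not always all listed) spaced by √10. With no medium change over 5 days, they were then fixed, permeabilised and Hoechst-stained in one step and imaged at 4×. MetaXpress counted nuclei, and viability is the median across plates of treated-well over vehicle-well nuclei. Acceptance needed control CV below 25% and at least one doubling.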

[2] = compound: CC1=CN=C(N=C1C2=CNC(=C2)C(=O)N[C@H](CO)C3=CC(=CC=C3)Cl)NC4=C(C=C(C=C4)F)Cl [VX-11e] + Cc1cc(Nc2cc(N3CCN(C)CC3)nc(Sc3ccc(NC(=O)C4CC4)cc3)n2)n[nH]1 [Tozasertib] (partner 0.1 µM)
Outline: (§1)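 Lung cancer cell lines were pin-tool dosed in 1536-well plates on the day after seeding, with either a lone drug or a fixed anchor-drug dose plus five library-drug doses (not always all listed) in √10 steps. Nuclei were counted on 4× images after 5 days. Relative viability is the ratio of treated-well to vehicle-well nuclei counts, with each value a median of duplicate plates.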

[3] = compound: CC1=CN=C(N=C1C2=CNC(=C2)C(=O)N[C@H](CO)C3=CC(=CC=C3)Cl)NC4=C(C=C(C=C4)F)Cl [VX-11e] + CC1(C)CCC(c2ccc(Cl)cc2)=C(CN2CCN(c3ccc(C(=O)NS(=O)(=O)c4ccc(N[C@H](CCN5CCOCC5)CSc5ccccc5)c(S(=O)(=O)C(F)(F)F)c4)cc3)CC2)C1 [Navitoclax] (partner 0.5 µM)
Outline: as §1

[4] = compound: CC1=CN=C(N=C1C2=CNC(=C2)C(=O)N[C@H](CO)C3=CC(=CC=C3)Cl)NC4=C(C=C(C=C4)F)Cl [VX-11e] + N=C(N)NC(=N)NCCc1ccccc1 [Phenformin] (partner 250 µM)
Outline: as §1

| Cell Line | relative viability ([1]; 0.04 µM) | relative viability ([1]; 0.1265 µM) | relative viability ([1]; 0.4 µM) | relative viability ([1]; 1.265 µM) | relative viability ([1]; 4 µM) | relative viability ([2]; first compound 0.04 µM) | relative viability ([2]; first compound 0.1265 µM) | relative viability ([2]; first compound 1.265 µM) | relative viability ([2]; first compound 4 µM) | relative viability ([3]; first compound 0.04 µM) | relative viability ([3]; first compound 0.1265 µM) | relative viability ([3]; first compound 0.4 µM) | relative viability ([3]; first compound 1.265 µM) | relative viability ([3]; first compound 4 µM) | relative viability ([4]; first compound 0.04 µM) | relative viability ([4]; first compound 0.1265 µM) | relative viability ([4]; first compound 1.265 µM) | relative viability ([4]; first compound 4 µM) | relative viability ([2]; first compound 0.4 µM) | relative viability ([4]; first compound 0.4 µM) |
| --- | --- | --- | --- | --- | --- | --- | --- | --- | --- | --- | --- | --- | --- | --- | --- | --- | --- | --- | --- | --- |
| NCI-H1650 | 0.866 | 0.886 | 0.521 | 0.668 | 0.652 | 0.426 | 0.309 | 0.261 | 0.203 | 1.21 | 1.07 | 1.08 | 0.856 | 0.374 | 0.478 | 0.343 | 0.315 | 0.295 | – | – |
| NCI-H1651 | 0.934 | 0.921 | 0.959 | 0.861 | 0.939 | 0.898 | 0.523 | 0.38 | 0.253 | 1.06 | 1.1 | 0.968 | 0.893 | 0.939 | 0.347 | 0.301 | 0.314 | 0.305 | 0.536 | 0.23 |
| NCI-H1666 | 1.02 | 0.978 | 0.764 | 0.805 | 0.679 | 0.561 | 0.584 | 0.52 | 0.388 | 0.987 | 1.1 | 0.848 | 0.51 | 0.368 | 0.556 | 0.554 | 0.569 | 0.503 | 0.49 | 0.478 |
| NCI-H1734 | 0.835 | 0.858 | 0.635 | 0.632 | 0.411 | 0.289 | 0.209 | 0.23 | 0.192 | 0.787 | 0.796 | 0.685 | 0.652 | 0.245 | 0.369 | 0.391 | 0.231 | 0.209 | 0.234 | 0.323 |
| NCI-H1755 | 1.03 | 0.978 | 0.978 | 0.992 | 0.817 | 0.59 | 0.487 | 0.527 | 0.402 | 1.06 | 0.956 | 0.972 | 0.956 | 0.558 | 0.694 | 0.542 | 0.594 | 0.51 | 0.513 | 0.248 |
| NCI-H1793 | – | 0.8 | – | 0.752 | 0.301 | 0.345 | 0.293 | 0.228 | 0.133 | – | 0.526 | – | 0.382 | 0.152 | 0.372 | 0.314 | 0.34 | 0.245 | – | – |
| NCI-H1915 | 0.992 | 0.784 | 0.784 | 0.734 | 0.489 | 0.42 | 0.392 | 0.366 | 0.295 | 0.826 | 0.761 | 0.787 | 0.682 | 0.546 | 0.401 | 0.343 | 0.298 | 0.235 | 0.401 | 0.291 |
| NCI-H1944 | 0.874 | 0.869 | 0.525 | 0.78 | 0.558 | 0.224 | 0.227 | 0.231 | 0.171 | 0.947 | 1.03 | 0.951 | 0.944 | 0.504 | 0.194 | 0.193 | 0.218 | 0.168 | – | – |
| NCI-H1975 | 0.95 | 0.885 | 0.774 | 0.816 | 0.598 | 0.695 | 0.526 | 0.216 | 0.124 | 1.03 | 1.09 | 1.13 | 1.06 | 0.612 | 0.443 | 0.362 | 0.393 | 0.199 | 0.228 | 0.261 |
| NCI-H1993 | – | 0.968 | 0.673 | 0.809 | 0.662 | 0.626 | 0.603 | 0.562 | 0.514 | – | 1.03 | – | 0.804 | 0.612 | 0.547 | 0.49 | 0.517 | 0.518 | 0.639 | 0.484 |
| NCI-H2009 | 1.12 | 0.962 | 0.932 | 0.481 | 0.269 | 0.714 | 0.64 | 0.4 | 0.171 | 1.17 | 1.14 | 1.2 | 0.938 | 0.289 | 0.575 | 0.535 | 0.251 | 0.178 | 0.591 | 0.481 |
| NCI-H2023 | 0.941 | 0.957 | 0.557 | 0.569 | 0.445 | 0.279 | 0.161 | 0.142 | 0.0967 | 1.02 | 0.879 | 0.966 | 1 | 0.405 | 0.393 | 0.404 | 0.322 | 0.191 | 0.161 | 0.291 |
| NCI-H2085 | 1.04 | 0.949 | 0.923 | 0.84 | 0.696 | 0.897 | 0.724 | 0.644 | 0.413 | 1.17 | 1.02 | 1.1 | 0.919 | 0.719 | 0.6 | 0.707 | 0.449 | 0.425 | 0.659 | 0.641 |
| NCI-H2087 | 1.05 | 0.989 | – | 0.566 | 0.293 | 0.28 | 0.208 | 0.203 | 0.167 | 0.983 | 1 | 0.999 | 0.8 | 0.257 | 0.459 | 0.462 | 0.393 | 0.181 | – | – |
| NCI-H2126 | 0.682 | 0.935 | 0.701 | 0.894 | 0.808 | 0.828 | 0.78 | 0.666 | 0.6 | – | 0.861 | 0.877 | 0.785 | 0.638 | 0.48 | 0.512 | 0.567 | 0.467 | – | – |
| NCI-H2170 | 0.862 | 0.938 | 0.871 | 0.913 | 0.949 | 0.81 | 0.687 | 0.69 | 0.686 | 0.576 | 0.528 | 0.496 | 0.583 | 0.404 | 0.41 | 0.431 | 0.445 | 0.39 | 0.734 | 0.21 |

— the supplement of paper PMC10307832
